In patent US5962417A, “Methods of modulating melanin synthesis” (Trustees of Boston University, priority 1998, dated 1999):

Key:
TRP 1 = test system: TRP 1
Method: (§1) To investigate whether PKC regulates other melanogenic proteins such as tyrosinase related proteins (TPR 1 and TPR 2), melanocytes were treated with 10^-7 M TPA for 2 weeks, a condition known to deplete PKC, and TRP 1 and TRP 2 protein levels were determined using immunoblot analysis with specific antibodies. […] TRP 1 and TRP 2 were immunoprecipitated and incorporation of ^3 H-glycosamine into these proteins was examined.

TRP 2 = target: TRP 2
Method: as §1

[1] = 10^-7 M TPA for 2 weeks (PKC depletion), melanocytes
[2] = TPA for 2 weeks, melanocytes labeled with 3H-glycosamine

Question: For CCCCCCCCCCCCCC(=O)O[C@@H]1[C@@H](C)[C@@]2(O)[C@@H](C=C(CO)C[C@]3(O)C(=O)C(C)=C[C@@H]23)[C@@H]2C(C)(C)[C@]12OC(C)=O [TPA, tetraphorbol acetate], which “effect on TRP 1 protein level” value (TRP 1; [1]) is on record?
Answer: no effect

Question: What about the “effect on glycosylated or non-glycosylated form of TRP 1 (3H-glycosamine labeling)” value (TRP 1; [2]) of the same compound?
Answer: did not affect

Question: What about the “effect on 65 kd non-glycosylated TRP 2 precursor” value (TRP 2; [1]) of the same compound?
Answer: unaffected

Question: And the “reduction of level of glycosylated mature form of TRP 2 (80 kd)” value (TRP 2; [1])?
Answer: 50-70%

Question: And the “reduction of 3H-glycosamine incorporation into TRP 2” value (TRP 2; [2])?
Answer: > 50%
